Experimental data published in publication PMC4503722, “Novel Phenotypic Outcomes Identified for a Public Collection of Approved Drugs from a Publicly Accessible Panel of Assays” (PLoS ONE, 2015).
Counter-ions that a name gives are not always drawn. Like-named read-outs stand apart in the source and are kept apart here. *1 amine or outer side, *2 acyl side, *3 side chain or, on linkers, in order; H or OH if unused. Where a SMILES comes first, the peptide text is derived from it. Bridges are numbered along the chain shown (N, C = ends). Roman numbers before positions name the chains, in order. [ ]: non-standard residue; d: D form. Actinocin(9to1) = Cc1c2oc3c(C)ccc(C(=O)[*:1])c3nc-2c(C(=O)[*:2])c(N)c1=O; NMeV = CN[C@H](C(=O)O)C(C)C; Sar = CNCC(=O)O

Tests used:
Experiment in all cases: cells
SW480 = assay type: cell-based
DLD-1 = assay type: cell-based
[1] = system: HCT116 cells treated with a GSK3β inhibitor; assay type: cell-based
NCI-H716 cells = assay type: cell-based, Human
HCT116 = assay type: cell-based
[2] = system: nuclear β-catenin in C2C12 cells; assay type: cell-based
[3] = system: endothelial tube formation in co-cultures of ECFCs and ADSCs treated with VEGF; assay type: cell-based, human
INS-1E cells = assay type: cell-based, rat
HeLa cells = assay type: cell-based; conditions: read-out: CellCycle G2/M
[4] = read-out: Basal_Viability ATP SW480
[5] = read-out: Basal_Viability ATP DLD-1
[6] = read-out: GSK3b inh pretreated_Viability ATP HCT116
[7] = read-out: Basal_Viability ATP HCT116
[8] = Homo sapiens, SW480, basal; read-out: Basal_Viability ATP SW480
[9] = Homo sapiens, DLD-1, basal; read-out: Basal_Viability ATP DLD-1
[10] = Homo sapiens, HCT-116, GSK3b inhibitor pretreated, read-out: GSK3b inh pretreated_Viability ATP HCT116
[11] = Homo sapiens; IC50 / EC50; NCI-H716; read-out: GLP 1 Secretion
[12] = Homo sapiens, HCT-116, basal; read-out: Basal_Viability ATP HCT116
[13] = Mus musculus, C2C12, IC50 / EC50, C2C12 beta-catenin translocation, read-out: Wnt Pathway
[14] = Homo sapiens, IC50 / EC50; endothelial tube area, ADSC/ECFC co-culture; read-out: Anti-Angiogenesis
[15] = Rattus norvegicus; IC50 / EC50; INS-1E; read-out: Insulin Secretion

Nc1cc(C(F)(F)F)ccc1S
IC50 (SW480; basal; SW480; read-out: Basal_Viability ATP SW480): > 20 µM | IC50 (DLD-1; basal; DLD-1; read-out: Basal_Viability ATP DLD-1): > 20 µM | IC50 ([1]; HCT116 pretreated with GSK3b inhibitor, read-out: GSK3b inh pretreated_Viability ATP HCT116): > 20 µM | EC50 (NCI-H716 cells; read-out: GLP 1 Secretion): 1160 nM | IC50 (HCT116; basal; HCT116; read-out: Basal_Viability ATP HCT116): > 20 µM | EC50 ([2]; S2 Table, module primary assay, 20 / 20.1 codes per legend, read-out: Wnt Pathway): > 10 µM | IC50 ([3]; read-out: Anti-Angiogenesis): > 10 µM | EC50 (INS-1E cells; S2 Table; module primary assay; 20 / 20.1 codes per legend; read-out: Insulin Secretion): > 10 µM

COc1ccc(OC(=O)N(CC(=O)O)Cc2ccc(OCCc3nc(-c4ccccc4)oc3C)cc2)cc1
IC50 (SW480; [4]): 6.23 µM | IC50 (DLD-1; [5]): 9.55 µM | IC50 [1, 6]: 6.13 µM | EC50 (NCI-H716 cells; read-out: GLP 1 Secretion): 1540 nM | IC50 (HCT116; [7]): 7.65 µM | EC50 ([2]; read-out: Wnt Pathway): > 10 µM | IC50 ([3]; read-out: Anti-Angiogenesis): > 10 µM | EC50 (INS-1E cells; read-out: Insulin Secretion): > 10 µM

CCOc1ccc2nc3cc(N)ccc3c(N)c2c1 [Acrinol]
IC50 (SW480; [4]): 3.23 µM | IC50 (DLD-1; [5]): > 20 µM | IC50 [1, 6]: 5.92 µM | EC50 (NCI-H716 cells; read-out: GLP 1 Secretion): > 10000 nM | IC50 (HCT116; [7]): 15.7 µM | EC50 (HeLa cells): > 10 µM | EC50 ([2]; read-out: Wnt Pathway): > 10 µM | IC50 ([3]; read-out: Anti-Angiogenesis): 4.94 µM | EC50 (INS-1E cells; read-out: Insulin Secretion): > 10 µM

O=C1c2c(O)cccc2Cc2cccc(O)c21 [Anthralin]
IC50 (SW480; Homo sapiens, SW480, basal; SW480; read-out: Basal_Viability ATP SW480): 1.57 µM | IC50 (DLD-1; Homo sapiens, DLD-1, basal; DLD-1; read-out: Basal_Viability ATP DLD-1): 0.0667 µM | IC50 ([1]; Homo sapiens, HCT-116, HCT116 pretreated with GSK3b inhibitor, read-out: GSK3b inh pretreated_Viability ATP HCT116): 16.3 µM | EC50 (NCI-H716 cells; Homo sapiens, NCI-H716; read-out: GLP 1 Secretion): > 10000 nM | IC50 (HCT116; Homo sapiens, HCT-116, basal; HCT116; read-out: Basal_Viability ATP HCT116): 2.2 µM | EC50 (HeLa cells; Homo sapiens, HeLa, S2 Table, HeLa, 20 = no response at highest concentration): > 10 µM | EC50 ([2]; Mus musculus, C2C12, S2 Table, module primary assay, 20 / 20.1 codes per legend, read-out: Wnt Pathway): > 10 µM | IC50 ([3]; Homo sapiens; read-out: Anti-Angiogenesis): 0.604 µM | EC50 (INS-1E cells; Rattus norvegicus, INS-1E; read-out: Insulin Secretion): > 10 µM

CC1=C(C(=O)OC(C)C)C(c2cccc([N+](=O)[O-])c2)C(C(=O)OC2CN(C(c3ccccc3)c3ccccc3)C2)=C(N)N1 (stereo not drawn) [Azelnidipine]
IC50 (SW480; [8]): 3.84 µM | IC50 (DLD-1; [9]): 5.1 µM | IC50 [1, 10]: 5.5 µM | EC50 (NCI-H716 cells; [11]): 1230 nM | IC50 (HCT116; [12]): 3.69 µM | EC50 [2, 13]: > 10 µM | IC50 [3, 14]: 3.58 µM | EC50 (INS-1E cells; [15]): > 10 µM

O=c1[nH]c(=O)n([C@H]2C[C@H](O)[C@@H](CO)O2)cc1Br [Broxuridine]
IC50 (SW480; [8]): > 20 µM | IC50 (DLD-1; [9]): > 20 µM | IC50 [1, 10]: > 20 µM | EC50 (NCI-H716 cells; [11]): > 10000 nM | IC50 (HCT116; [12]): > 20 µM | EC50 (HeLa cells; Homo sapiens, HeLa, IC50 / EC50, HeLa): > 10 µM | EC50 [2, 13]: > 10 µM | IC50 [3, 14]: 3.85 µM | EC50 (INS-1E cells; [15]): > 10 µM

C=CC(=O)Nc1cc2c(Nc3ccc(F)c(Cl)c3)ncnc2cc1OCCCN1CCOCC1 [Canertinib]
IC50 (SW480; Homo sapiens, SW480, read-out: Basal_Viability ATP SW480): 1.21 µM | IC50 (DLD-1; Homo sapiens, DLD-1, read-out: Basal_Viability ATP DLD-1): 0.841 µM | IC50 ([1]; Homo sapiens, HCT-116, read-out: GSK3b inh pretreated_Viability ATP HCT116): 3.51 µM | EC50 (NCI-H716 cells; Homo sapiens, NCI-H716, read-out: GLP 1 Secretion): > 10000 nM | IC50 (HCT116; Homo sapiens, HCT-116, read-out: Basal_Viability ATP HCT116): 3.71 µM | EC50 (HeLa cells; Homo sapiens, HeLa): > 10 µM | EC50 ([2]; Mus musculus, C2C12, read-out: Wnt Pathway): 1 µM | IC50 ([3]; Homo sapiens, read-out: Anti-Angiogenesis): > 10 µM | EC50 (INS-1E cells; Rattus norvegicus, INS-1E, read-out: Insulin Secretion): > 10 µM

NC(=O)C1(N2CCCCC2)CCN(CCCN2c3ccccc3CCc3ccc(Cl)cc32)CC1 [Clocapramine]
IC50 (SW480; [8]): 3.69 µM | IC50 (DLD-1; [9]): 5.35 µM | IC50 [1, 10]: 3.64 µM | EC50 (NCI-H716 cells; [11]): 18300 nM | IC50 (HCT116; [12]): 3.41 µM | EC50 [2, 13]: > 20 µM | IC50 [3, 14]: 3.4 µM | EC50 (INS-1E cells; [15]): 10.1 µM

Cc1c2oc3c(C)ccc(C(=O)N[C@@H]4C(=O)N[C@H](C(C)C)C(=O)N5CCC[C@H]5C(=O)N(C)CC(=O)N(C)[C@@H](C(C)C)C(=O)O[C@@H]4C)c3nc-2c(C(=O)N[C@@H]2C(=O)N[C@H](C(C)C)C(=O)N3CCC[C@H]3C(=O)N(C)CC(=O)N(C)[C@@H](C(C)C)C(=O)O[C@@H]2C)c(N)c1=O [Dactinomycin] (I: T[dV]P[Sar][NMeV] / II: T[dV]P[Sar][NMeV]; ester I:1-I:C, II:1-II:C; linker I:N-II:N via Actinocin(9to1))
IC50 (SW480; Homo sapiens, SW480; read-out: Basal_Viability ATP SW480): 0.0667 µM | IC50 (DLD-1; Homo sapiens, DLD-1; read-out: Basal_Viability ATP DLD-1): 0.0667 µM | IC50 [1, 10]: > 20 µM | EC50 (NCI-H716 cells; [11]): > 10000 nM | IC50 (HCT116; Homo sapiens, HCT-116; read-out: Basal_Viability ATP HCT116): 12.6 µM | EC50 ([2]; Mus musculus, IC50 / EC50, C2C12 beta-catenin translocation, read-out: Wnt Pathway): 0.0015 µM | IC50 [3, 14]: 0.001 µM | EC50 (INS-1E cells; [15]): > 10 µM

O=C(O)c1ccccc1-c1c2cc(I)c(=O)c(I)c-2oc2c(I)c(O)c(I)cc12 [Erythrosin b]
IC50 (SW480; basal; read-out: Basal_Viability ATP SW480): > 20 µM | IC50 (DLD-1; basal; read-out: Basal_Viability ATP DLD-1): > 20 µM | IC50 ([1]; GSK3b inhibitor pretreated, read-out: GSK3b inh pretreated_Viability ATP HCT116): > 20 µM | EC50 (NCI-H716 cells; IC50 / EC50; NCI-H716; read-out: GLP 1 Secretion): 2930 nM | IC50 (HCT116; basal; read-out: Basal_Viability ATP HCT116): > 20 µM | EC50 ([2]; IC50 / EC50, C2C12 beta-catenin translocation, read-out: Wnt Pathway): > 10 µM | IC50 ([3]; IC50 / EC50; endothelial tube area, ADSC/ECFC co-culture; read-out: Anti-Angiogenesis): > 10 µM | EC50 (INS-1E cells; IC50 / EC50; INS-1E; read-out: Insulin Secretion): > 10 µM

Oc1ccc2[nH]cc(CCCCN3CC=C(c4ccccc4)CC3)c2c1 [Roxindole hydrochloride]
IC50 (SW480; [4]): 2.47 µM | IC50 (DLD-1; [5]): 4.54 µM | IC50 [1, 6]: 3.32 µM | EC50 (NCI-H716 cells; read-out: GLP 1 Secretion): > 10000 nM | IC50 (HCT116; [7]): 2.5 µM | EC50 ([2]; read-out: Wnt Pathway): > 10 µM | IC50 ([3]; read-out: Anti-Angiogenesis): 4.04 µM | EC50 (INS-1E cells; read-out: Insulin Secretion): > 10 µM

O=C1Nc2ccc(Cl)cc2[C@@](C#CC2CC2)(C(F)(F)F)O1 [efavirenz, reference compound]
IC50 (SW480; [8]): 4.61 µM | IC50 (DLD-1; [9]): > 20 µM | IC50 [1, 10]: 7.3 µM | activity in the GLP-1 secretion assay (in words) (NCI-H716 cells): exhibited activity in the GLP-1 secretion assay | EC50 (NCI-H716 cells; [11]): 2480 nM | IC50 (HCT116; [12]): 6.17 µM | EC50 [2, 13]: > 10 µM | IC50 [3, 14]: > 10 µM | EC50 (INS-1E cells; [15]): 3.87 µM

CCC1=C(C)CN(C(=O)NCCc2ccc(S(=O)(=O)NC(=O)N[C@H]3CC[C@H](C)CC3)cc2)C1=O [glimepiride, reference compound]
IC50 (SW480; Homo sapiens, SW480, 72 h, Table 2; 72 h, Cell TiterGlo, non-adherent; 20 coded; read-out: SW480 viab. IC50): > 20 µM | IC50 (DLD-1; Homo sapiens, DLD-1, 72 h, Table 2; 72 h, Cell TiterGlo, non-adherent; 20 coded; read-out: DLD-1 viab. IC50): > 20 µM | IC50 ([1]; Homo sapiens, HCT-116, read-out: HCT-116 (GSK3β) viab. IC50, Table 2, GSK3β inhibitor LY2090314 20 nM, 72 h, Cell TiterGlo, 20 coded): > 20 µM | EC50 (NCI-H716 cells; Homo sapiens, NCI-H716; read-out: GLP1 sec. EC50): > 10000 nM | IC50 (HCT116; Homo sapiens, HCT-116, 72 h, read-out: HCT-116 viab. IC50, Table 2; basal; 72 h, Cell TiterGlo, non-adherent; 20 coded): > 20 µM | EC50 ([2]; Mus musculus, C2C12, Table 2, C2C12, […], 20 / 20.1 coded, read-out: Wnt pot. EC50): > 10 µM | IC50 ([3]; Homo sapiens, Table 2; primary assay tube area; 20 = no response in concentration-response, 20.1 = inactive in single concentration testing; read-out: Anti-Angio IC50): > 10 µM | EC50 (INS-1E cells; Rattus norvegicus, INS-1E; read-out: Ins. sec. EC50): 0.004 µM | EC50 (INS-1E cells; [15]): 0.00406 µM | EC50 (INS-1E cells; Rattus norvegicus; INS-1E, 5 mM glucose; read-out: insulin secretion EC50): 0.0041 µM
